Results reported in patent US12377095B2, “Use of ligustrazine nitrone derivatives in treatment and prevention of diabetic complication diseases” (QINGDAO HAILAN PHARMACEUTICALS CO., LTD., priority 2019, dated 2025).

Experiments:
STZ-induced DKD rats [1] = test: Body weight, water intake and food intake of STZ-induced DKD rats; assay type: in vivo, rat
Description: (§1) SD rats (200±10 g) were used as model animals, which were fasted for 12 h before injection. STZ was dissolved in citrate buffer at 1% concentration, and rats were fasted and intraperitoneally injected with 55 mg/kg STZ and placed in the cage, the rats being ensured with adequate water intake for 24 h. STZ injections need to be fast and complete within 10 minutes of injection. The normal control group was injected with an equal volume of pH 4.5 citric acid-sodium citrate buffer. The state of the animals (multiple drinking and polyuria) was observed. After 3 weeks of STZ injection, blood was collected from the tail vein, and fasting blood glucose ≥16.7 mmol/L was measured as the standard for diabetic nephropathy in rats.
(§2) DKD rats were randomly assigned to 6 groups and given with different drugs. After 6 weeks of administration, the experiment was terminated and the protective effect of the drug on DKD rats was observed.
The general condition and body weight changes after rat modeling were observed weekly. The general conditions include the activity, mental state, coat color, diet, water intake and urine volume of the rats. The amount of water and the amount of feed were recorded weekly.

STZ-induced DKD rats [2] = test: Serum biochemical parameters of STZ-induced DKD rats; assay type: in vivo, rat; conditions: six weeks after administration, dose-dependent
Description: as §1, §2
Six weeks after the administration, the rats were anesthetized, and the blood was taken from the abdominal aorta, and, after standing for 1 hour, was centrifuged at 3000 rmp for 10 min and stored at −70° C. Serum levels of creatinine, urea nitrogen, cholesterol and triglycerides were measured using an automated biochemical analyzer.

STZ-induced DKD rats [3] = test: Retinopathy of STZ-induced DKD rats; assay type: in vivo, rat; conditions: DKD rats after treatment, Table 1 (FIG. 5)
Description: as §1, §2
During the experiment, the retinopathy of rats was observed during daily administration, and the dates of retinopathy in different groups of rats were recorded.

[4] = test system: spontaneous diabetic model in rhesus monkeys; test: Spontaneous diabetic model in rhesus monkeys, serum EPO and iron; assay type: in vivo
STZ-induced SHR rats [5] = test: Serum EPO content in STZ-induced SHR rats; assay type: in vivo, rat; conditions: TBN group (T60), 60 mg/kg
STZ-induced SHR rats [6] = test: PAS staining, glomerular hardening of STZ-induced SHR rats; assay type: in vivo, rat; conditions: 60 mg/kg
Description: 6 W-age SHR rats were abstained from food but not water for 12 h before injection, and then intraperitoneally injected with 55 mg/kg STZ after weighing (STZ required for fast injection, to be completed within 10 min), then put back to the cage to ensure that rat has sufficient drinking water in the period of 24 h, and the rats of normal control group were injected with citric acid buffer (pH 4.5) in the same volume. After 3 weeks of STZ injection, retinal venous blood was collected, and blood glucose ≥16.7 mmol/L was used as a molding standard, where the model of SHR rats that meet the above criteria is considered successful.
The route of administration is intragastrical, TBN is administered twice a day (fixed at 9:00-10:00 am and 3:00-4:00 pm), and Losartan is administered once a day (fixed at 9:00-10:00 am), continuously for 6 weeks.
The process is the same as in Example 9.

db/db mice = test: Electron microscopy of kidney tissue in db/db mice; assay type: in vivo, mouse
Text: db/db mice are congenital obese type 2 DKD mice with spontaneous mutations in the leptin receptor (Leptin receptor, Lepr) due to a point mutation in the leptin receptor gene GT located on chromosome 4. The course of polyphagia, polyuria, diabetes and hyperglycemia is similar to that of humans, and it is currently the most widely used type 2 spontaneous animal model of DKD. The db/db mice have a series of complications with the aggravation of diabetes. The main pathological changes of renal tissue are the expansion of the glomerular mesangial interstitium, the thickening of the glomerular basement membrane, and the excessive accumulation of extracellular matrix. However, the glomerular mesangium of db/db mice changes relatively slowly, and the glomerular mesangium will not be dissolved or nodular glomerulosclerosis, and there is no progressive renal insufficiency.
Six-week-old db/db mice were purchased, and start the administration after adaptive feeding for 1 week (i.e., 7-week-old). TBN is administered twice a day (fixed by starting from 9:00-10:00 am and 3:00-4:00 pm, with an interval of 6 hours), and the positive control drug Losartan was administered once a day (fixed at 9:00-10:00 am) for 6 weeks.
After the mice were executed, the renal cortex was quickly taken with sharp blade (performed on ice); fixed with 2.5% glutaraldehyde (pH 7.4) at 4° C. for 6 h; then fixed for 2 h in a stationary liquid having 1:1 of 0.2 mmol/L PBS and 2% osmic acid, and dehydrated with gradient acetone at 4° C., 10 min for each of 50%, 70%, 90% acetone, then dehydrated with 100% acetone at room temperature twice, each time 15 min; in 1:1 acetone and Epon812 epoxy resin embedded mixed liquid, soaked at room temperature for 30 min; then dipped through the pure furnishings overnight, the embedding agent was made enveloping into tissue blocks completely to replace the dehydrating agent; the samples were embedded in the embedder for ultra-thin slicing, placed at 35° C. for 12 h; placed at 45° C. for 12 h; placed at 60° C. for 48 h; placed in a 37° C. oven for 36 h, in a 60° C. oven for 36 h; 1.5 μm semi-slice was prepared with an ultra-thin slicer; positioning under optical microscope, a trapeter having a top area of about 1 mm^2 was shaped to prepare 60-70 nm thick ultra-thin slices; dyed in dark with acetate hydroxide liquid for 10 min, and dyed in lead-stained citrate for 10 min.

[7] = test system: cisplatin-induced C57BL/6J mice; test: Serum erythropoietin in cisplatin-induced renal anemia C57BL/6J mice; assay type: in vivo, mouse
Description: Modeling method: the animals were randomly divided into 5 groups, i.e., normal control group, model group, three treatment groups, wherein the normal control group was injected with equal volume of normal saline, the model group and three treatment groups were intraperitoneally injected with cisplatin (CDDP) 5 mg/kg once a week, for 4 weeks.
The route of administration is intragastrical. TBN is administered twice a day (fixed at 9:00-10:00 am and 3:00-4:00 pm), and Roxadustat is administered once every two days (fixed at 9:00-10:00 am), for 4 weeks.
At the end of the experiment, after rats were anesthetized, the blood was taken from the abdominal aorta, allowed to stand for 1 hour, centrifuged at 3000 rpm for 10 min, and stored in aliquots at −80° C. The content of erythropoietin in the serum was detected by using of a kit. After the administration, compared with the model group, the TBN treatment groups can increase the expression of erythropoietin to varying degrees.

Cc1nc(C)c(/C=[N+](\[O-])C(C)(C)C)nc1C [TBN]
body weight (STZ-induced DKD rats [1]; STZ-induced diabetic nephropathy rats, FIG. 1a): no effect | water intake (STZ-induced DKD rats [1]; vs model group, FIG. 1b): significantly lower | food intake (STZ-induced DKD rats [1]; vs model group, FIG. 1c): significantly lower | serum cholesterol (STZ-induced DKD rats [2]): significantly reduce | serum creatinine (STZ-induced DKD rats [2]): significantly reduce | serum triglyceride (STZ-induced DKD rats [2]): significantly reduce | serum urea nitrogen (STZ-induced DKD rats [2]): significantly reduce | number of retinopathy (STZ-induced DKD rats [3]): reduced | time when retinopathy occurred (STZ-induced DKD rats [3]): relatively delayed | serum EPO content [4]: increase | serum iron content [4]: increase | content of EPO in serum vs model group (STZ-induced SHR rats [5]): significantly increased | degree of glomerular hardening (PAS) vs SHR-STZ group (STZ-induced SHR rats [6]): significantly lower | podocyte fusion (db/db mice; 10 mg/kg): slight podocyte fusion | proliferation of the glomerular membrane (db/db mice; 10 mg/kg): no significant proliferation | thickness of the glomerular base film (db/db mice; 10 mg/kg, 6 weeks (TBN P<0.05; Losartan P<0.01)): decrease | podocyte fusion (db/db mice; 30 mg/kg): podocyte fusion in small area | proliferation of the glomerular measuring membrane (db/db mice; 30 mg/kg): no significant proliferation | thickness of the glomerular base film (db/db mice; 30 mg/kg, P<0.01 vs db/db): significantly reduced | podocyte fusion (db/db mice; 60 mg/kg): no obvious segmental fusion | proliferation of glomerular membranes (db/db mice; 60 mg/kg): no significant proliferation | thickness of the glomerular base film (db/db mice; 60 mg/kg, P<0.01 vs db/db): significantly reduced | expression/content of erythropoietin vs model group ([7]; TBN treatment groups (30, 60 mg/kg), to varying degrees, dose dependence): increase | efficacy on EPO content compared with positive control drug ([7]; high-dose group (60 mg/kg) vs Roxadustat 10 mg/kg): stronger than that of the positive control drug
